Source: patent US10857082B2, “Diarylalkanes as potent inhibitors of binuclear enzymes” (Unigen, Inc., priority 2004, dated 2020)
Entries after “also recorded” stand apart in the source; their conditions may differ. Where two headings read alike, the source gives them in different places. Values belong to the compound of their own block, whether it stands above or below them.

Experiments:
mushroom tyrosinase = mushroom tyrosinase (Agaricus bisporus, UniProt C7FF04); experiment: Tyrosinase inhibition assay (L-DOPA to dopachrome, absorbance at 450 nm); type: biochemical
Protocol: (§1) A tyrosinase inhibition assay was carried out using the method reported by Jones et al. (2002) Pigment. Cell Res. 15:335. Using this method, the conversion of L-Dopa, a substrate of tyrosinase, into dopachrome is followed by monitoring absorption at 450 nm. Tyrosinase was prepared in 50 mM potassium phosphate buffer, pH 6.8 (assay buffer) at 2000 U/ml and stored at −20° C. in 1 ml aliquots prior to use. For use in assays, stock enzyme solutions were thawed and diluted to 200 U/ml with assay buffer. A 2 mM working solution of substrate, L-DOPA, was prepared in assay buffer for each assay. Samples were dissolved in 10% DMSO (0.5 ml) and diluted to 5 ml with assay buffer. The reaction mixture consisted of 0.050 ml 2 mM L-DOPA, 0.050 ml 200 U/ml mushroom tyrosinase and 0.050 ml inhibitor. Reaction volume was adjusted to 200 μl with assay buffer. Assays were performed in 96 well Falcon 3097 flat-bottom microtiter plates (Beckton Dickinson, N.J.). Appearance of dopachrome was measured with a WALLAC 1420 Multilable Counter (Turku, Finland). Average velocity was determined from linear enzyme rate as measured by change in absorbance (ΔA450) at 450 nm per minute. Percent inhibition of tyrosinase by test samples was determined by comparison of absorbance of samples versus control using formula (I): (Negative control absorption-sample absorption)/Negative control absorption×100 (1)
Inhibition of tyrosinase by synthetic diarylalkanes was measured using the method described in Example 2. The IC50 value of each sample was calculated using kinetics software to verify that the reaction was linear at a specified time and concentration.

DOPA oxidase activity = settings: cited from earlier work
tyrosinase = experiment: Enzyme inhibition kinetics with L-DOPA as substrate; type: biochemical, mushroom
Protocol: as §1, with “A 2 mM working solution of substrate, L-DOPA, was prepared in assay buffer for each assay.” left out, “The reaction mixture consisted of 0.050 ml 2 mM L-DOPA, 0.050 ml 200 U/ml mushroom tyrosinase and 0.050 ml inhibitor.” left out

B16 F1 cells [1] = experiment: Cell toxicity assay, lactate dehydrogenase (LDH)
Protocol: The inhibition of melanin production was evaluated using two different assays. In the first assay, the inhibition of melanin production was evaluated without induction by β-MSH; whereas in the second assay the inhibition of melanin production was measured with β-MSH induction in cell culture medium. Briefly, B16 F1 cells (ATCC #CRL-622) were grown to confluency and then seeded at 40,000 cells per well. The cells were allowed to attach overnight at 37° C. in a humidified environment containing 5% CO2. On day 2, inhibitors were added to the cells at concentrations ranging from 0-1000 μM in triplicate and allowed to incubate for four days. The amount of β-MSH required to induce melanin formation was determined by the addition of hormone at concentrations ranging from 0-1000 nM in ten-fold increments. Once the proper β-MSH concentration was determined, cells were seeded as above, allowed to attach overnight and then co-incubated with tyrosinase inhibitors at concentrations ranging from 0-1000 μM. Color development was visually monitored each morning. After the development of color, 200 μl of cell supernatant was removed from each well and absorbance was measured at 450 nm. The resulting readings were used to determine the IC50 for melanin formation in the cell assay with and without β-MSH induction. For an initial comparison of cell toxicity, the 250 μM treated wells were used to perform a lactate dehydrogenase assay (LDH). LDH is a metabolic enzyme that leaks out of damaged or dead cells. The enzyme converts a chromophore in the presence of NAD^+ to yield a color change that can be monitored spectrophotometrically.
The compound treated wells were used to perform a lactate dehydrogenase assay (LDH). LDH is a metabolic enzyme that leaks out of damaged or dead cells. The enzyme converts a chromophore in the presence of NAD^+ to yield a color change that can be monitored spectrophotometrically. The cytotoxicity was examined at a concentration of 250 μM. […] It should be noted however, that cytotoxicity at only one concentration (250 μM) was tested.

B16 F1 cells [2] = experiment: Inhibition of melanin production in B16 F1 cells without β-MSH induction (endogenous); type: cell-based, mouse; settings: for Inhibition of melanin production relative to kojic acid, in words: B-16 cell line model, with and without β-MSH induction
Text: (§2) Color development was visually monitored each morning.

B16 F1 cells [3] = experiment: Inhibition of melanin production in B16 F1 cells with β-MSH induction; type: cell-based, mouse
Text: as §2

[4] = biological target: human tyrosinase hydroxylase activity (Homo sapiens (Human), UniProt P14679); settings: cited from earlier work
[5] = test system: B16 F1 murine melanoma cells; settings: read-out: IC50, melanin biosynthesis; cited from earlier work
[6] = Table 2, synthetic diarylalkanes and/or diarylalkanols, read-out: Tyrosinase Inhibition (IC50)
[7] = read-out: IC50 for inhibition of tyrosinase
[8] = Mus musculus, B16 F1 cells, without β-MSH induction, read-out: IC50 for melanin formation, endogenous experiment
[9] = Table 3, mouse B16 F1 cells, no β-MSH, read-out: Endogenous Melanin Inhibition IC50
[10] = Mus musculus, B16 F1 cells, with β-MSH induction, read-out: IC50 for melanin formation, induced experiment
[11] = Table 3, mouse B16 F1 cells, β-MSH induction, read-out: MSH Induced Melanin Inhibition IC50

Sequence of mushroom tyrosinase (C7FF04 1-392 limits assumed): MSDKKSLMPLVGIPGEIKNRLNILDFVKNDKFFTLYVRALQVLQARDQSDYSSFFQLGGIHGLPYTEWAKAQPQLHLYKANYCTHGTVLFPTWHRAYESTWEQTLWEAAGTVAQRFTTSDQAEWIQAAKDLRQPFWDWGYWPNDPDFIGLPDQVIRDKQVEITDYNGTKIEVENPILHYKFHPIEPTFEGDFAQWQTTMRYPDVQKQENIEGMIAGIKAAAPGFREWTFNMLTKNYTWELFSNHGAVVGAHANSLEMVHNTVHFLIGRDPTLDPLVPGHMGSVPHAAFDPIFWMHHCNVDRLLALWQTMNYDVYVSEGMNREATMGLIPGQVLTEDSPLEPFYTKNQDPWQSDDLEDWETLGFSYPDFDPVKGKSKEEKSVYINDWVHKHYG
Sequence of human tyrosinase hydroxylase activity (P14679 19-529): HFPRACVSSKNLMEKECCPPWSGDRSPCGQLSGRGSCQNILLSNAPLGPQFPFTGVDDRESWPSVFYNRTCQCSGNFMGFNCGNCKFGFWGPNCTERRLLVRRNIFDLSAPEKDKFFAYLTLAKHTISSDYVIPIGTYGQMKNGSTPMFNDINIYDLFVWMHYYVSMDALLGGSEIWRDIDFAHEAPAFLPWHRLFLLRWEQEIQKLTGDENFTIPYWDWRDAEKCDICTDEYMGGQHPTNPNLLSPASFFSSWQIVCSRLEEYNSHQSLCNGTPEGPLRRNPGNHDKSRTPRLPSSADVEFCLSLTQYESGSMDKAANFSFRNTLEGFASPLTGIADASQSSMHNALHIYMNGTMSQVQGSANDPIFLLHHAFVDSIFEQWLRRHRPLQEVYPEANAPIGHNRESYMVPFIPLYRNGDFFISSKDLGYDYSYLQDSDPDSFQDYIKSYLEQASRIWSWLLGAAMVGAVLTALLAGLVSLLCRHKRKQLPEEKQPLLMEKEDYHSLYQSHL

SMILES: COc1cc(CCC(O)c2ccc(O)cc2O)ccc1O (centres unmarked) [1-(2,4-dihydroxyphenyl)-3-(3′-methoxy-4′-hydroxyphenyl)-1-propanol]
Tyrosinase inhibitory activity in words (mushroom tyrosinase): quite strong tyrosinase inhibitory activity

SMILES: COc1ccc(C(O)CCc2ccc3c(c2)OCCCCO3)c(O)c1 (centres unmarked) [1-(2-hydroxy-4-methoxyphenyl)-3-(2′,3′,4′,5′-tetrahydro-benzo(b)dioxoin-8′-yl)-1-propanol]
IC50 (mushroom tyrosinase; [6]): 72 µM
IC50 (mushroom tyrosinase; [7]): 72 µM

SMILES: COc1ccc(C(O)CCc2ncc(Cl)n2C)c(O)c1 (centres unmarked) [3-(5′-chloro-1′-methyl-1′-hydro-imidazol-2′-yl)-1-(2-hydroxy-4-methoxyphenyl)-1-propanol]
IC50 (mushroom tyrosinase; [6]): 225 µM
IC50 (mushroom tyrosinase; [7]): 225 µM

SMILES: CC(=O)Cc1cc(=O)c2c(C)cc(O)c([C@@H]3O[C@H](CO)[C@@H](O)[C@H](O)[C@H]3O)c2o1 [aloesin]
IC50 [4]: 920 µM
IC50 [5]: 167 µM
IC50 (DOPA oxidase activity): 700 µM

SMILES: OC[C@H]1O[C@@H](Oc2ccc(O)cc2)[C@H](O)[C@@H](O)[C@@H]1O [arbutin]
IC50 (DOPA oxidase activity): 3020 µM

Second part, led by results:

Time until tyrosinase activity was totally restored following incubation (tyrosinase): 1 h
IC50 (B16 F1 cells [2]; [8]): 170 µM
IC50 (B16 F1 cells [2]; [9]): 170 µM
IC50 (B16 F1 cells [3]; [10]): 67 µM
IC50 (B16 F1 cells [3]; [11]): 67 µM
SMILES: O=c1cc(CO)occ1O [Kojic acid, kojic acid, reference compound]
IC50 (DOPA oxidase activity): 410 µM
Cell Toxicity (LDH) (B16 F1 cells [1]; 250 μM treated wells): 0.260

IC50 (B16 F1 cells [2]; [9]): 108 µM
IC50 (B16 F1 cells [3]; [11]): 105 µM
SMILES: COc1ccc(O)c(CCCc2ccc(O)cc2OC)c1 [UP288, 1-(2-methoxy-4-hydroxyphenyl)-3-(2′-hydroxy-5′-methoxyphenyl)-propane]
Cell Toxicity (LDH) (B16 F1 cells [1]; mouse, 4 days, 250 μM): 0.315
Tyrosinase inhibitory activity in words (mushroom tyrosinase): as potent a tyrosinase inhibitor as kojic acid; also recorded: strong tyrosinase inhibition activity
Inhibition of melanin production relative to kojic acid, in words (B16 F1 cells [2]): comparable to kojic acid; also recorded: at least as good, if not better inhibitors than kojic acid

Resumption of tyrosinase activity after incubation with inhibitor (tyrosinase): not resumed for several days
Type of tyrosinase inhibition (tyrosinase; inhibitor 0, 261, 522, 1044 nM, L-DOPA 0.75, 1.25, 2.5 mM): powerful competitive inhibitor
Tyrosinase inhibitory activity in words (mushroom tyrosinase): strong tyrosinase inhibitory activity
IC50 (B16 F1 cells [2]; [8]): 28 µM
IC50 (B16 F1 cells [2]; [9]): 28 µM
IC50 (B16 F1 cells [3]; [10]): 40 µM
IC50 (B16 F1 cells [3]; [11]): 40 µM
SMILES: COc1ccc(CCCc2ccc(O)cc2O)c(OC)c1C [UP302a, 1-(3-methyl-2,4-dimethoxyphenyl)-3-(2′,4′-dihydroxyphenyl)-propane]
Cell Toxicity (LDH) (B16 F1 cells [1]; mouse, 4 days, 250 μM): 0.265
Inhibition of melanin production relative to kojic acid, in words (B16 F1 cells [2]): at least as good, if not better inhibitors than kojic acid
Inhibition of MSH induced melanin production relative to kojic acid (B16 F1 cells [3]; B-16 cell line): significantly greater than kojic acid

IC50 (mushroom tyrosinase; [6]): 30 µM
SMILES: COc1ccc(O)c(C(O)CCc2ccc(OC)c(OC)c2)c1 (stereo not drawn) [l-(2-hydroxy-5-methoxyphenyl)-3-(3′,4′-dimethoxyphenyl)-1-propanol]
